Measured values: patent US9877999B2, “Methods for treating metastatic stage prostate cancer” (Ferring International SA, priority 2008, dated 2018)
“And” between values parts separate entries of the source, which are not always exact repeats. Equal values may be shown once.

How the values were obtained:
Format in all cases: in vivo, human
[1] = tested on: prostate-specific antigen (PSA); test: PSA failure in prostate cancer patients (clinical study CS21); conditions: for proportion of PSA failures: leuprolide 7.5 mg
Procedure: For this analysis, PSA failure (a secondary endpoint) was defined as two consecutive increases in PSA of 50% and 5 ng/mL compared with nadir. The time to PSA failure was defined as the number of days from first dosing to where an increase in serum PSA of 50% from nadir and 5 ng/mL, measured on two consecutive occasions at least two weeks apart, was noted. The second occasion was the time point of meeting the criterion. PSA failure rates were also analyzed by disease stage and baseline PSA level.
(§1) The secondary efficacy endpoints were: the proportion of patients with testosterone surge during the first 2 weeks of treatment; the proportion of patients with testosterone level ≦0.5 ng/mL at day 3; the percentage change in PSA from baseline to day 28; the probability of testosterone ≦0.5 ng/mL from day 56 through day 364; the levels of serum testosterone, LH, FSH and PSA over time through the study; the time to PSA failure, defined as two consecutive increases of 50%, and at least 5 ng/mL as compared to nadir; degarelix concentration over the first month and trough levels at day 308 and 336; the frequency and size of testosterone increases at day 255 and/or 259 compared to the testosterone level at day 252; the quality of life on days 0, 28, 84, 168 and end of study visit; the frequency and intensity of hot flushes experienced (scored daily from study start until end of study visit). In addition, two further secondary endpoints were added: the probability of sufficient testosterone response from day 28 through day 364 (a patient was considered to have insufficient testosterone response if they had one testosterone value >1.0 ng/mL or two consecutive testosterone values >0.5 ng/mL at day 28 onwards); and the percentage change in PSA from baseline to day 14.
The secondary endpoints, probability of testosterone ≦0.5 ng/mL from day 56 through day 364, time to PSA failure, and probability of sufficient testosterone response from day 28 through day 364 were analyzed by the Kaplan-Meier method.

luteinizing hormone (LH) = test: Serum LH levels over time (clinical study CS21); conditions: leuprolide 7.5 mg group
Procedure: (§2) The study also investigated whether degarelix is safe and effective with respect to achieving and maintaining testosterone suppression to castrate levels, evaluated as the proportion of patients with testosterone suppression ≦0.5 ng/mL during 12 months of treatment. […] The study also evaluated the pharmacokinetics of the degarelix dosing regimens investigated. Finally, the study examined the effects of using the degarelix treatment on patients suffering from different stages of cancer.
(§3) Patients in two treatment groups received a degarelix starting dose of 240 mg at a concentration of 40 mg/mL (240@40) on day 0 administered as two equivalent subcutaneous (s.c.) injections of 120 mg each. Thereafter, patients received 12 additional single s.c. degarelix doses of either 80 mg at a concentration of 20 mg/mL (80@20: degarelix 240/80 mg group) or 160 mg at a concentration of 40 mg/mL (160@40: degarelix 240/160 mg group) administered s.c. every 28 days.
as §1

testosterone = conditions: leuprolide 7.5 mg group
Procedure: The study also evaluated the pharmacokinetics of the degarelix dosing regimens investigated. Finally, the study examined the effects of using the degarelix treatment on patients suffering from different stages of cancer. […] The primary efficacy endpoint was the probability of testosterone levels remaining ≦0.5 ng/mL from day 28 through day 364. […] The primary efficacy endpoint was analyzed for both the ITT and PP analysis sets, with the ITT analysis set considered primary. The primary efficacy endpoint was analyzed using the Kaplan Meier method. For each of the three treatment groups, testosterone response rates with 95% confidence interval (CI) were calculated by log-log transformation of survivor function. […] All secondary efficacy endpoints were analyzed for both the ITT and PP analysis sets, unless otherwise stated. […] The percentage change in PSA from baseline to day 28 endpoint was analyzed by a Wilcoxon test.

[2] = tested on: follicle stimulating hormone (FSH); test: Serum FSH levels over time (clinical study CS21); conditions: leuprolide 7.5 mg group
Procedure: as §2, §3, §1

[3] = tested on: serum alkaline phosphatase (S-ALP); test: S-ALP analysis in prostate cancer patients (clinical study CS21); conditions: Leuprolide 7.5 mg
Procedure: Patients with histologically confirmed adenocarcinoma of the prostate (all stages), for whom androgen deprivation therapy was indicated were recruited. Baseline characteristics were well balanced between groups. Approximately half of patients had locally advanced (29.2%) or metastatic (20.5%) disease at baseline. […] Patients receiving leuprolide could also receive bicalutamide for clinical flare protection. The S-ALP levels were measured in each patient at various time points, by taking a blood sample and analyzing for S-ALP. S-ALP levels were measured using a standardized colorimetric assay based on the p-nitrophenyl phosphate AMP buffer method. The normal range for S-ALP is 44-147 IU/L. The S-ALP values in non-metastatic patients serve as controls. An ANOVA analysis with treatment and day as factors and baseline value as covariate was used to determine between treatment differences at Day 364. A repeated measures analysis (incorporating all time points from Day 112) with treatment and day as factors and baseline value as covariate was used to assess between treatment differences from Day 112 to Day 364.

[4] = tested on: prostate-specific antigen (PSA); test: Serum PSA level change in prostate cancer patients (clinical study CS21); conditions: leuprolide 7.5 mg patients who did not receive anti-androgen therapy
Procedure: All secondary efficacy endpoints were analyzed for both the ITT and PP analysis sets, unless otherwise stated. The proportion of patients with testosterone surge during the first 2 weeks of treatment was analyzed using Fisher's exact test. […] The percentage change in PSA from baseline to day 28 endpoint was analyzed by a Wilcoxon test.

For CCNC(=O)[C@@H]1CCCN1C(=O)[C@H](CCCNC(=N)N)NC(=O)[C@H](CC(C)C)NC(=O)[C@@H](CC(C)C)NC(=O)[C@H](Cc1ccc(O)cc1)NC(=O)[C@H](CO)NC(=O)[C@H](Cc1c[nH]c2ccccc12)NC(=O)[C@H](Cc1c[nH]cn1)NC(=O)[C@@H]1CCC(=O)N1 [leuprolide, reference compound], the “probability of completing the study without experiencing PSA failure by day 364” value ([1]; leuprolide 7.5 mg group) was 85.9% and ~85.8%, the “proportion of PSA failures” value ([1]; patients with baseline PSA>50 ng/mL) was 40.0% and the “proportion of PSA failures” value ([1]; patients with metastatic disease at baseline) was 36.2%. For the same compound, the “median LH level” value (luteinizing hormone (LH); by day 56, remaining until day 364) was 0.035 IU/L, the “increase of median LH from baseline” value (luteinizing hormone (LH); day 1) was greater than 400% and the “median LH level, peak” value (luteinizing hormone (LH); day 1) was 31.0 IU/L. The “Kaplan-Meier estimate of the probability of testosterone ≦0.5 ng/mL from day 28 to day 364” value (testosterone) was 96.4%, the “patients exhibiting testosterone suppression on day 3” value (testosterone) was “no patients” and the “overall proportion of patients with testosterone ≦0.5 ng/mL from day 28 to day 364” value (testosterone; observed cases analysis) was 96.0%. The FSH level ([2]; by day 14) was 2.0 IU/L, the “FSH level, peak” value ([2]; day 1) was 22.5 IU/L and the “increase of FSH from baseline” value ([2]; day 1) was 146%. The “Median FSH plateau” value ([2]; from around day 56 until day 364) was “approximately 4.40 IU/L”, the “S-ALP mean change from baseline” value ([3]; Localized, Day 112) was “+5 IU/L” and the “S-ALP mean change from baseline” value ([3]; Localized, Day 224) was “+7 IU/L”. For the same compound, the “S-ALP mean change from baseline” value ([3]; Localized, Day 364) was “+9 IU/L”, the “S-ALP mean change from baseline” value ([3]; Locally advanced, Day 112) was −1 IU/L and the “S-ALP mean change from baseline” value ([3]; Locally advanced, Day 224) was −1 IU/L. For the same compound, the “S-ALP mean change from baseline” value ([3]; Locally advanced, Day 364) was “+6 IU/L”, the “S-ALP mean change from baseline” value ([3]; Metastatic (Hb < 130 g/L), Day 112) was −30 IU/L and the “S-ALP mean change from baseline” value ([3]; Metastatic (Hb < 130 g/L), Day 224) was −70 IU/L. The “S-ALP mean change from baseline” value ([3]; Metastatic (Hb < 130 g/L), Day 364) was −10 IU/L, the “S-ALP mean change from baseline” value ([3]; Metastatic, Day 112) was −20 IU/L and the “S-ALP mean change from baseline” value ([3]; Metastatic, Day 224) was −50 IU/L. The “S-ALP mean change from baseline” value ([3]; Metastatic, Day 364) was 0 IU/L, the “S-ALP mean change from baseline” value ([3]; baseline PSA 10-20 ng/mL, Day 112) was “+5 IU/L” and the “S-ALP mean change from baseline” value ([3]; baseline PSA 10-20 ng/mL, Day 224) was “+8 IU/L”. The “S-ALP mean change from baseline” value ([3]; baseline PSA 10-20 ng/mL, Day 364) was “+8 IU/L”, the “S-ALP mean change from baseline” value ([3]; baseline PSA 20-50 ng/mL, Day 112) was “+5 IU/L” and the “S-ALP mean change from baseline” value ([3]; baseline PSA 20-50 ng/mL, Day 224) was “+8.5 IU/L”. The “S-ALP mean change from baseline” value ([3]; baseline PSA 20-50 ng/mL, Day 364) was “+11 IU/L”, the “S-ALP mean change from baseline” value ([3]; baseline PSA < 10 ng/mL, Day 112) was “+4.5 IU/L” and the “S-ALP mean change from baseline” value ([3]; baseline PSA < 10 ng/mL, Day 224) was “+6 IU/L”. The “S-ALP mean change from baseline” value ([3]; baseline PSA < 10 ng/mL, Day 364) was “+7.5 IU/L”, the “S-ALP mean change from baseline” value ([3]; baseline PSA > 50 ng/mL, Day 112) was −40 IU/L and the “S-ALP mean change from baseline” value ([3]; baseline PSA > 50 ng/mL, Day 224) was −60 IU/L. For the same compound, the “S-ALP mean change from baseline” value ([3]; baseline PSA > 50 ng/mL, Day 364) was “+10 IU/L”, the “PSA median percentage reduction from baseline” value ([4]; day 14) was 15.3% and the “PSA median percentage reduction from baseline” value ([4]; day 28) was 61.7%.
